#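 Protocol summary: plate cells (96-well), add compound at 5 concentrations, incubate 48 h, interpolate endpoints linearly. GI50: concentration for 50% inhibition of growth. TGI denotes the concentration required for complete inhibition of growth.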 Where a SMILES comes first, the peptide text is derived from it. [ ]: non-standard residue; d: D form. The star is where a group is joined. NMeF = CN[CH](Cc1ccccc1)C(=O)O; NMeV = CN[CH](C(=O)O)C(C)C; Boc = CC(C)(C)OC(=O)*
# Experiments:
# Test in all cases: NCI anticancer screen, dose series, 48 h
# HCT-116 colon = system: HCT-116 colon
# RXF 393 renal = system: RXF 393 renal
# SK-OV-3 ovarian = system: SK-OV-3 ovarian
# SNB-75 CNS = system: SNB-75 CNS
# EKVX NSCLC = system: EKVX NSCLC
# CAKI-1 renal = system: CAKI-1 renal
# HOP-92 NSCLC = system: HOP-92 NSCLC
# K-562 leukemia = system: K-562 leukemia
Structure (SMILES),TGI (HCT-116 colon) [µM],TGI (RXF 393 renal) [µM],TGI (SK-OV-3 ovarian) [µM],TGI (SNB-75 CNS) [µM],TGI (EKVX NSCLC) [µM],TGI (CAKI-1 renal) [µM],TGI (HOP-92 NSCLC) [µM],TGI (K-562 leukemia) [µM],GI50 (HCT-116 colon) [µM],GI50 (RXF 393 renal) [µM],GI50 (SNB-75 CNS) [µM],GI50 (EKVX NSCLC) [µM],GI50 (CAKI-1 renal) [µM],GI50 (HOP-92 NSCLC) [µM],GI50 (K-562 leukemia) [µM]
Cc1nc(N)sc1C(=O)/C=C\c1ccc2c(c1)OCO2,> 100,> 100,> 100,> 100,> 100,> 100,> 100,> 100,,,,,,,
CCOc1ccccc1NC(=O)CC(C(=O)OC)C(=O)C(=O)OC (centres undefined),> 100,> 100,> 100,,> 100,> 100,> 100,> 100,,,,,,,
CC(C)C(NC(=O)OC(C)(C)C)C(=O)N(C)C(Cc1ccccc1)C(=O)N(C)C(C(=O)O)C(C)C (stereo not drawn) (Boc-Val-[NMeF]-[NMeV]-OH; configuration not given here),> 100,,> 100,,> 100,,,> 100,,,,,,,
COc1cc2c(cc1OC)C(CC(=O)NN=C(C)C)NCC2 (centres undefined),> 100,> 100,> 100,> 100,> 100,> 100,> 100,> 100,,,,,,,
Cn1c(=O)c(C(c2ccc([N+](=O)[O-])cc2)c2c(O)c3ccccc3n(C)c2=O)cc2ccccc21 (centres undefined),> 100,> 100,> 100,85.1,> 100,> 100,> 100,> 100,,,,,,,
Cc1cn(C2CC(O)C(CO)O2)c(=O)n2nnnc12 (centres undefined),> 100,,> 100,> 100,> 100,,> 100,> 100,,,,,,,
NC(N)=N/N=C(\c1nc2ccc([N+](=O)[O-])cc2[nH]c1=O)C(O)c1ccc([N+](=O)[O-])cc1 (centres undefined),> 100,> 100,> 100,> 100,,> 100,> 100,> 100,,,,,,,
COc1ccccc1CCc1cc(OC)c(OC)c(OC)c1,> 100,57.7,,> 100,> 100,> 100,> 100,> 100,,,,,,,
Cc1cc(Cl)ccc1N=C1NC(=O)C(CC(=O)Nc2ccc([N+](=O)[O-])cc2[N+](=O)[O-])S1 (centres undefined),,,55,44.2,> 100,54.3,,> 100,,,,,,,
COc1ccc(C(=O)C(C(=O)CCC(=O)Nc2cccc(Cl)c2)c2ccc(OC)cc2)cc1 (centres undefined),> 100,,> 100,> 100,> 100,> 100,> 100,> 100,,,,,,,
Cc1cccc(NC(=O)/C(=N\NC(C)(C)C)C2NC(=S)NC2=O)c1C (centres undefined),> 100,,> 100,,> 100,> 100,,> 100,,,,,,,
CC1(C)SCc2nc3ncccc3n21,,> 100,> 100,> 100,> 100,> 100,> 100,> 100,,,,,,,
COC(=O)/C(=N\Nc1nnc(C)n1N)C(C#N)c1ccc(Cl)cc1 (centres undefined),> 100,> 100,> 100,> 100,> 100,> 100,> 100,,,,,,,,
O=C(Cc1ccccc1)NN1C(=O)C(Cl)C1c1cc(Br)ccc1O (centres undefined),> 100,> 100,39,34.4,23.9,60.7,,42.7,,,,,,,
COc1cc(C(C)O)c[n+](CCc2c[nH]c3ccccc23)c1 (centres undefined),> 100,> 100,,> 100,> 100,> 100,,> 100,,,,,,,
CC(=O)[O-].CCN(CC)c1ccc(C=NCCN=Cc2ccc(N(CC)CC)cc2[O-])c([O-])c1.[Mn+3],33.3,46.5,,58.2,> 100,> 100,93.9,61.3,18.5,20.5,22.1,39.6,> 100,38.3,22.9
C1=CC2SSSC2C1 (centres undefined),> 100,> 100,> 100,> 100,> 100,,> 100,> 100,,,,,,,
C[C@@H]1CC(=O)C2CCCC1C2=O (some centres undefined),> 100,> 100,> 100,> 100,> 100,> 100,> 100,,,,,,,,
NCCCCN(CCCN)/[N+]([O-])=N\O,> 100,> 100,> 100,> 100,,> 100,> 100,> 100,,,,,,,
Nn1c(=O)n(Cc2ccccc2)n(-c2ccccc2)c1=O,> 100,> 100,> 100,> 100,,> 100,> 100,> 100,,,,,,,
O=C1CCN2C(=O)CCN12,> 100,,> 100,,> 100,> 100,> 100,> 100,,,,,,,
CC1(C)C(=O)N(CCCCCCN2C(=O)C(C)(C)c3ccccc32)c2ccccc21,42.4,,> 100,> 100,> 100,> 100,> 100,55.4,,,,,,,
